Experiment [1] deals with T1, Peroxisome proliferator-activated receptor gamma (Homo sapiens) (UniProt P37231).
T1 sequence (whole entry): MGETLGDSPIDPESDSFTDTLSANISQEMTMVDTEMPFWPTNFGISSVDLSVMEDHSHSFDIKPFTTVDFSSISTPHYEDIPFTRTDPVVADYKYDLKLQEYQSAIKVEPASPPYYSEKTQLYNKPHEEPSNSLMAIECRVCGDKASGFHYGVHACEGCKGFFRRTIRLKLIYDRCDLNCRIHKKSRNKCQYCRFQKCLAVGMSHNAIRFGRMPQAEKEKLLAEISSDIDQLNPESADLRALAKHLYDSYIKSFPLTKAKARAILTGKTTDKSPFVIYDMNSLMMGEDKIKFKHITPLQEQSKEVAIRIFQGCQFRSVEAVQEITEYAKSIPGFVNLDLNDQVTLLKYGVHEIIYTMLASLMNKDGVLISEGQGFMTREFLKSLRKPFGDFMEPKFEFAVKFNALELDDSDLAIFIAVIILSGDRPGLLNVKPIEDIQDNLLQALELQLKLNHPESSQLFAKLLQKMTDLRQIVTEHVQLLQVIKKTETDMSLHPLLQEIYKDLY
The experiment is described as follows: (§1) Transactivation of Gal4 fused human PPARgamma LBD expressed in African green monkey COS7 cells after 42 hrs by dual luciferase reporter gene assay. The format is cell-based. In general terms: In a reporter assay the amount or activity of a reporter protein is the signal.

In experiment [2] the target is T2, Peroxisome proliferator-activated receptor gamma (Homo sapiens, UniProt P37231).
T2 sequence (P37231 whole entry): T1 sequence (whole entry)
The description is as §1. The format is cell-based.

As for `CCCc1nc2cc(-c3ccccc3Cl)ccc2n1Cc1ccc(-c2ccccc2C(=O)O)cc1`, in experiment [1], the Activity result is “Dose-dependent effect”. Also, in experiment [2] (read-out: EC50), the EC50 – broadly, the concentration at which the effect is half-maximal – stood at 930 nM.
For `CCCc1nc2ccc(-c3ccc(OC)cc3)cc2n1Cc1ccc(-c2ccccc2C(=O)O)cc1`, in that order: “Dose-dependent effect” and 1010 nM.
For `CCCc1nc2ccc(-c3ccc(Cl)cc3)cc2n1Cc1ccc(-c2ccccc2C(=O)O)cc1`, in that order: “Dose-dependent effect” and 1150 nM.
Turning to `CCCc1nc2cc(-c3cccc(Cl)c3)ccc2n1Cc1ccc(-c2ccccc2C(=O)O)cc1`, the EC50 entry in experiment [2] is “Not Active”.
As for `CCCc1nc2ccc(-c3ccccc3Cl)cc2n1Cc1ccc(-c2ccccc2C(=O)O)cc1`, the Activity result in experiment [1] is “Dose-dependent effect”. For the same molecule, the EC50 in experiment [2] (read-out: EC50) came to 1390 nM.
Take `CCCc1nc2c(C)cc(-c3nc4ccccc4n3C)cc2n1Cc1ccc(-c2ccccc2C(=O)O)cc1`: in experiment [2] (read-out: EC50), the EC50 stood at 4970 nM.
In the case of `CCCc1nc2cc(-c3cccc(O)c3)ccc2n1Cc1ccc(-c2ccccc2C(=O)O)cc1`, in experiment [1], the Activity result was “Dose-dependent effect”. Moreover, the concentration giving a half-maximal response (EC50) in experiment [2] (read-out: EC50) is 1250 nM.
For `CCCc1nc2cc(-c3cccc(OC)c3)ccc2n1Cc1ccc(-c2ccccc2C(=O)O)cc1`, in that order: “Dose-dependent effect” and 290 nM.
As to `CCCc1nc2ccc(-c3cccc(OC)c3)cc2n1Cc1ccc(-c2ccccc2C(=O)O)cc1`, the Activity entry in experiment [1] was “Dose-dependent effect”. Besides, the EC50 in experiment [2] (read-out: EC50) turned out to be 1350 nM.
Regarding `CCCc1nc2cc(-c3ccc(OC)cc3)ccc2n1Cc1ccc(-c2ccccc2C(=O)O)cc1`, in experiment [1], the Activity result was “Dose-dependent effect”. Further, the EC50 in experiment [2] (read-out: EC50) was 410 nM.
For `CCCc1nc2cc(-c3ccc(O)cc3)ccc2n1Cc1ccc(-c2ccccc2C(=O)O)cc1`, in that order: “Dose-dependent effect” and 1010 nM.
For `CCCc1nc2ccc(-c3ccc(O)cc3)cc2n1Cc1ccc(-c2ccccc2C(=O)O)cc1`, in that order: “Dose-dependent effect” and 2980 nM.
For `CCCc1nc2ccc(-c3cccc(Cl)c3)cc2n1Cc1ccc(-c2ccccc2C(=O)O)cc1`, in that order: “Dose-dependent effect” and 770 nM.
`CCCc1nc2cc(-c3ccc(Cl)cc3)ccc2n1Cc1ccc(-c2ccccc2C(=O)O)cc1`: the Activity result in experiment [1] was “Dose-dependent effect”. Also, the EC50 in experiment [2] (read-out: EC50) came out at 190 nM.
Turning to `CCCc1nc2ccccc2n1Cc1ccc(-c2ccccc2C(=O)O)cc1`, in experiment [1], the Activity entry is “Dose-dependent effect”. The EC50 in experiment [2] (read-out: EC50) was 6440 nM.
For `CCCc1nc2ccc(-c3cccc(O)c3)cc2n1Cc1ccc(-c2ccccc2C(=O)O)cc1`, in that order: “Dose-dependent effect” and 4090 nM.

(Values after ChEMBL document CHEMBL3994588, “Importance of 5/6-aryl substitution on the pharmacological profile of 4'-((2-propyl-1H-benzo[d]imidazol-1-yl)methyl)-[1,1'-biphenyl]-2-carboxylic acid derived PPARγ agonists” (Eur J Med Chem, 2017).)
